Source: patent US10538567B2, “Compounds as peptidic trigonal GLP1/glucagon/GIP receptor agonists” (priority 2016, dated 2020)
Numbered stars: 1 amine (or outer) side, 2 acyl side, 3 side chain; on linkers, the order of the positions; unused ones are H or OH. Square brackets hold non-standard residues; d marks the D form. Side chains are listed from the residue outwards. Peptide text beside a SMILES is read from it. * marks the point of attachment. γGlu = O=C(O)[C@H](CCC(=O)[*:2])N[*:1]; Palmitoyl = CCCCCCCCCCCCCCCC(=O)*; AEEA = NCCOCCOCC(=O)O; Aib = CC(C)(N)C(=O)O

Tests used:
Type in all cases: physicochemical
[1] = Thioflavin T (ThT) assay for physical stability (fibrillation); conditions: 3 mg/ml, 100 mM acetate pH 4.5 with m-cresol, 37° C. shaking
Description: Low physical stability of a peptide solution may lead to amyloid fibril formation, which is observed as well-ordered, thread-like macromolecular structures in the sample, which eventually may lead to gel formation. Thioflavin T (ThT) is widely used to visualize and quantify the presence of misfolded protein aggregates. [Biancalana et al. (2010) Biochimica et Biophysica Acta. 1804 (7): 1405-1412]. […] Enzymol. 309, 274-284]. The time course for fibril formation often follows the characteristic shape of a sigmoidal curve and can be separated into three regions: a lag phase, a fast growth phase, and a plateau phase.
The typical fibril formation process starts with the lag phase in which the amount of partially folded peptide turned into fibrils is not significant enough to be detected. The lag-time corresponds to the time the critical mass of the nucleus is built. Afterwards, a drastic elongation phase follows and fibril concentration increases rapidly.
Investigations were carried out to determine fibrillation tendencies under stress conditions by shaking at 37° C. within Fluoroskan Ascent FL.
For the tests in Fluoroskan Ascent FL, 200 μL sample were placed into a 96 well mictrotiter plate PS, flat bottom, Greiner Fluotrac No. 655076. Plates were sealed with Scotch Tape (Quiagen). Samples were stressed by continuous cycles of 10 s shaking at 960 rpm and 50 s rest period at 37° C. The kinetic was monitored by measuring fluorescence intensity every 20 minutes.
Peptides were diluted in a buffer system to a final concentration of 3 mg/ml. 20 μL of a 10.1 mM ThT solution in H2O were added to 2 mL of peptide solution to receive a final concentration of 100 μM ThT. For each sample eight replicates were tested.
Tht buffer system A) 100 mM Acetate pH 4.5 including m-cresol (100 mM Natriumacetat trihydrat, pH adjustment using 2N CH3COOH, 2.7 mg/mL m-cresol) Tht buffer system B) 100 mM citrate buffer pH 6.0
Lag time in hours in Thioflavin T (ThT) assay of peptide samples was determined in ThT buffer system A as described in Methods.

[2] = Chemical stability assessment, UPLC-UV purity loss in buffer system A; conditions: 1 mg/ml, 25 mM acetate buffer pH 4.5 with m-cresol
Experimental: Prior to the chemical stability measurement of a peptide batch, its purity was determined through UPLC/MS. For stability testing the target concentration was 1 mg pure compound/ml. Therefore solutions from solid samples were prepared in a buffer system with a concentration of 1 mg/mL compound based on the previously determined % purity:
Chemical stability buffer system A) 25 mM acetate buffer pH 4.5, 3 mg/mL L-Methionine, 2.7 mg/mL m-cresol, 18 mg/mL Glycerol 85% Chemical stability buffer system B) 25 mM phosphate buffer pH 6.0, 3 mg/mL L-Methionine, 2.7 mg/mL m-cresol, 18 mg/mL Glycerol 85%
Peptide solutions were filtered through […] pore size and filled into aliquots under aseptic conditions. At starting point, UPLC-UV was performed by injection of 2 μl of the undiluted sample.
For chemical stability testing, aliquots were stored for 28 days at 5 and 40° C. After this time course the samples were centrifuged for 15 min at 2500 RCF. Then 2 μl of the undiluted supernatant were analysed with UPLC-UV.
The chemical stability was rated through the relative loss of purity calculated by the equation: [(purity at starting point)−(purity after 28 days at X° C.)]/(purity at starting point)]*100%
The purity is calculated as
[(peak area peptide)/(total peak area)]*100%
Peptide samples were prepared in Chemical stability buffer system A and the stability was assessed as described in Methods.

[3] = Dynamic light scattering, hydrodynamic radius as surrogate for DLS interaction parameter kD; conditions: for Delta Rh [nm] = Rh5 − Rh1: DLS buffer system A pH 4.5; for Rh1 [nm] c = 1 mg/ml / Rh5 [nm] c = 5 mg/ml: hydrodynamic radius, DLS buffer system A pH 4.5, method C, 25° C.
Description: A monochromatic and coherent light beam (laser) is used to illuminate the liquid sample. Dynamic Light Scattering (DLS) measures light scattered from particles (1 nm≤radius≤1 μm) that undergo Brownian motion. This motion is induced by collisions between the particles and solvent molecules that themselves are moving due to their thermal energy. The diffusional motion of the particles results in temporal fluctuations of the scattered light [Pecora, R. Dynamic Light Scattering: Applications of Photon Correlation Spectroscopy, Plenum Press, 1985].
The scattered light intensity fluctuations are recorded and transformed into an autocorrelation function. By fitting the autocorrelation curve to an exponential function, the diffusion coefficient D of the particles in solution can be derived. The diffusion coefficient is then used to calculate the hydrodynamic radius Rh (or apparent Stokes radius) through the Stokes-Einstein equation assuming spherical particles. This calculation is defined in ISO 13321 and ISO 22412 [International Standard ISO13321 Methods for Determination of Particle Size Distribution Part 8: Photon Correlation Spectroscopy, International Organisation for Standardisation (ISO) 1996; International Standard ISO22412 Particle Size Analysis—Dynamic Light Scattering, International Organisation for Standardisation (ISO) 2008].
For every peptide solution, the hydrodynamic radius Rh and the diffusion constant D (related via the Stokes-Einstein equation) were determined as an average over triplicates. Both parameters were determined at different peptide concentrations (e.g., Rh1 and D1: 1 mg/ml and Rh5 and D5: 5 mg/ml) in the same buffer system. The difference of these parameters between low and high peptide concentration is a surrogate for the DLS interaction parameter kD. Rh5<Rh1 or D5>D1 correspond to kD>0 and therefore to repulsive inter-particle interactions that result in improved physical (or colloidal) stability.
DLS buffer system A) 25 mM acetate buffer pH 4.5, 3 mg/mL L-Methionine, 2.7 mg/mL m-cresol, 18 mg/mL Glycerol 85%
DLS Method C: DLS measurements were performed on a DynaPro Plate Reader II (Wyatt Technology, Santa Barbara, Calif., US) and using one of the following black, low volume, and non-treated plates: polystyrene 384 assay plate with clear bottom (Corning, N.Y., US), polystyrene 96 assay plate with clear bottom (Corning, N.Y., US), cyclo olefin polymer (COP) 384 assay plate with clear bottom (Aurora, Mont., US), or polystyrene 384 assay plate with clear bottom (Greiner Bio-One, Germany). The data were processed with the Dynamics software provided by Wyatt Technology. Parameters of the particle size distribution were determined with non-negatively constrained least squares (NNLS) methods using DynaLS algorithms. Measurements were taken at 25° C. with an 830 nm laser light source at an angle of 158°.
The hydrodynamic radius Rh of peptide samples was determined at different peptide concentrations (1 mg/ml and 5 mg/ml) in DLS buffer system A using DLS method C as described in Methods as surrogate for the DLS interaction parameter kD.

Row | Structure (SMILES) | Lag time before increase [1] | Chemical stability [relative purity loss 28 days 40° C.] (%) at pH 4.5 [2] | Delta Rh [nm] = Rh5 − Rh1 [3] | Rh1 [nm] c = 1 mg/ml [3] | Rh5 [nm] c = 5 mg/ml [3]
1 | CCCCCCCCCCCCCCCC(=O)NCCOCCOCC(=O)N[C@@H](CCC(=O)N[C@@H](CCC(=O)NCCCC[C@H](NC(=O)[C@H](CC(C)C)NC(=O)[C@H](CCCCN)NC(=O)[C@H](CO)NC(=O)[C@H](CC(C)C)NC(=O)[C@H](CC(=O)O)NC(=O)[C@H](CO)NC(=O)[C@@H](NC(=O)[C@H](Cc1ccccc1)NC(=O)[C@@H](NC(=O)CNC(=O)[C@H](Cc1c[nH]cn1)NC(=O)C(C)(C)NC(=O)[C@@H](N)Cc1c[nH]cn1)[C@@H](C)O)[C@@H](C)O)C(=O)N[C@@H](CCC(=O)O)C(=O)N[C@@H](CCC(=O)O)C(=O)N[C@@H](CCC(N)=O)C(=O)N[C@@H](CCCNC(=N)N)C(=O)N[C@@H](CCC(N)=O)C(=O)N[C@@H](CCCCN)C(=O)N[C@@H](CCC(=O)O)C(=O)N[C@@H](Cc1ccccc1)C(=O)N[C@H](C(=O)N[C@@H](CCC(=O)O)C(=O)N[C@@H](Cc1c[nH]c2ccccc12)C(=O)N[C@@H](CC(C)C)C(=O)N[C@@H](CCCCN)C(=O)N[C@@H](C)C(=O)NCC(=O)NCC(=O)N[C@@H](Cc1c[nH]cn1)C(=O)N1CCC[C@H]1C(=O)N[C@@H](CO)C(=O)NC(C)(C)C(=O)N[C@@H](CCCCN)C(=O)N1CCC[C@H]1C(=O)N1CCC[C@H]1C(=O)N1CCC[C@H]1C(=O)N[C@@H](CCCCN)C(N)=O)[C@@H](C)CC)C(=O)O)C(=O)O [SEQ ID NO: 14, H-Aib-H-G-T-F-T-S-D-L-S-K-L-K[gGlu-gGlu-AEEA-Palm]-E-E-Q-R-Q-K-E-F-I-E-W-L-K-A-G-G-H-P-S-Aib-K-P-P-P-K-NH2] (H-H[Aib]HGTFTSDLSKLK([γGlu-γGlu-AEEA-Palmitoyl])EEQRQKEFIEWLKAGGHPS[Aib]KPPPK-NH2) | >45 h | 8.1% | −0.1 nm | 3.0 nm | 2.9 nm
2 | CCCCCCCCCCCCCCCC(=O)NCCOCCOCC(=O)N[C@@H](CCC(=O)N[C@@H](CCC(=O)NCCCC[C@H](NC(=O)[C@H](CC(C)C)NC(=O)[C@H](CCCCN)NC(=O)[C@H](CO)NC(=O)[C@H](CC(C)C)NC(=O)[C@H](CC(=O)O)NC(=O)[C@H](CO)NC(=O)[C@@H](NC(=O)[C@H](Cc1ccccc1)NC(=O)[C@@H](NC(=O)CNC(=O)[C@H](Cc1c[nH]cn1)NC(=O)C(C)(C)NC(=O)[C@@H](N)Cc1c[nH]cn1)[C@@H](C)O)[C@@H](C)O)C(=O)N[C@@H](CCC(=O)O)C(=O)N[C@@H](CCC(=O)O)C(=O)N[C@@H](CCC(N)=O)C(=O)N[C@@H](CCCNC(=N)N)C(=O)N[C@@H](CCC(N)=O)C(=O)N[C@@H](CCCCN)C(=O)N[C@@H](CCC(=O)O)C(=O)N[C@@H](Cc1ccccc1)C(=O)N[C@H](C(=O)N[C@@H](CCC(=O)O)C(=O)N[C@@H](Cc1c[nH]c2ccccc12)C(=O)N[C@@H](CC(C)C)C(=O)N[C@@H](CCCCN)C(=O)N[C@@H](C)C(=O)N[C@H](C)C(=O)NCC(=O)N[C@@H](Cc1c[nH]cn1)C(=O)N1CCC[C@H]1C(=O)N[C@@H](CO)C(=O)NC(C)(C)C(=O)N[C@@H](CCCCN)C(=O)N1CCC[C@H]1C(=O)N1CCC[C@H]1C(=O)N1CCC[C@H]1C(=O)N[C@@H](CCCCN)C(N)=O)[C@@H](C)CC)C(=O)O)C(=O)O [SEQ ID NO: 15, H-Aib-H-G-T-F-T-S-D-L-S-K-L-K[gGlu-gGlu-AEEA-Palm]-E-E-Q-R-Q-K-E-F-1-E-W-L-K-A-dAla-G-H-P-S-Aib-K-P-P-P-K-NH2] (H-H[Aib]HGTFTSDLSKLK([γGlu-γGlu-AEEA-Palmitoyl])EEQRQKEFIEWLKA[dA]GHPS[Aib]KPPPK-NH2) | >45 h | 7.2% | −0.4 nm | 3.0 nm | 2.6 nm
